Measurements as given in patent publication US20140322705A1, “Cancer diagnostic and cancer therapeutic” (Thomas Jefferson University, priority 2010, published 2014).
Entries after “also recorded” stand apart in the source; their conditions may differ.

How the values were obtained:
[1] = system: MDA-MB-231 breast cancer cells; assay: MDA-MB-231 flank xenograft tumor growth; type: in vivo, athymic nude mice; settings: 500 mg/kg daily i.p.; tumor volume at 3 weeks post tumor cell injection
Protocol: A xenograft model was employed in which MDA-MB-231 breast cancer cells injected into the flanks of athymic nude mice to evaluate the potential tumor promoting properties of the products of aerobic glycolysis (such as 3-hydroxy-butyrate and L-lactate). Tumor growth was assessed by measuring tumor volume, at 3-weeks post tumor cell injection. During this time period, mice were administered either PBS alone, or PBS containing 3-hydroxy-butyrate (500 mg/kg) or L-lactate (500 mg/kg), via daily intra-peritoneal (i.p.) injections. Note that 3-hydroxy-butyrate is sufficient to promote an ˜2.5-fold increase in tumor growth, relative to the PBS-alone control. Under these conditions.
To evaluate the potential tumor promoting properties of the products of aerobic glycolysis (such as 3-hydroxy-butyrate and L-lacate), a xenograft model employing MDA-MB-231 breast cancer cells injected into the flanks of athymic nude mice was used. Tumor growth was assessed by measuring tumor volume, at 3-weeks post tumor cell injection. During this time period, mice were administered either PBS alone, or PBS containing 3-hydroxy-butyrate (500 mg/kg) or L-lactate (500 mg/kg), via daily intra-peritoneal (i.p.) injections.

[2] = system: MDA-MB-231 breast cancer cells; assay: Tumor vascularity by CD31 immuno-staining of xenograft tumors; type: in vivo, athymic nude mice; settings: 500 mg/kg daily i.p.; primary xenograft tumors
Protocol: Tumor angiogenesis could account for the tumor-promoting properties of 3-hydroxy-butyrate. Thus, the status of tumor vascularity was evaluated using antibodies directed against CD31. However, the vascular density (number of vessels per field) was not increased by the administration of either 3-hydroxy-butyrate or L-lactate. Thus, other mechanisms, such as the “Reverse Warburg Effect” may be operating to increase tumor growth. n.s., not significant.
One mechanism that could account for the tumor-promoting properties of 3-hydroxy-butyrate is increased tumor angiogenesis. Thus, the status of tumor vascularity using antibodies directed against CD31 was evaluated. […] Thus, other mechanisms, such as the “Reverse Warburg Effect” may be operating to increase tumor growth.

MDA-MB-231 cells [3] = assay: Modified Boyden Chamber (Transwell) cell migration assay; type: cell-based, human; settings: 10 mM in lower chamber
Protocol: 3-hydroxy-butyrate or L-lactate can function as chemo-attractants. shown using a modified “Boyden Chamber” assay, employing Transwell cell culture inserts. MDA-MB-231 cells were placed in the upper chambers, and 3-hydroxy-butyrate (10 mM) or L-lactate (10 mM) were introduced into the lower chambers. Note that both 3-hydroxy-butyrate and L-lactate promoted cancer cell migration by nearly 2-fold. *p<0.05, control (vehicle alone) versus 3-hydroxy-butyrate or L-lactate (Student's t-test).
Next, whether 3-hydroxy-butyrate or L-lactate can function as chemo-attractants was assessed, using a modified “Boyden Chamber” assay, employing Transwell cell culture inserts. MDA-MB-231 cells were placed in the upper chambers, and 3-hydroxy-butyrate (10 mM) or L-lactate (10 mM) were introduced into the lower chambers. […] Thus, the metabolic products of aerobic glycolysis can also function as chemo-attractants for cancer cells, probably via a form of nutrient sensing.

MDA-MB-231 cells [4] = assay: Lung colonization (metastasis) assay, tail vein injection; type: in vivo, athymic nude mice; settings: 7 weeks post-injection; India ink staining
Protocol: To examine the effect of 3-hydroxy-butyrate and L-lactate on cancer cell metastasis, a well-established lung colonization assay was used, where MDA-MB-231 cells are injected into the tail vein of athymic nude mice. After 7 weeks post-injection, the lungs were harvested and the metastases were visualized with India ink staining. Using this approach, the lung parenchyma stains black, while the tumor metastatic foci remain unstained, and appear white. The number of metastases per lung lobe was scored. Note that relative to PBS-alone, the administration of L-lacate stimulated the formation of metastatic foci by ˜10-fold. Under these conditions, 3-hydroxy-butryate had no effect on metastasis formation. *p<0.01, PBS alone versus L-lactate (Student's t-test and ANOVA); *p<0.05, PBS alone versus L-lactate (Mann-Whitney test).
The effect of 3-hydroxy-butyrate and L-lactate on cancer cell metastasis were measured. For this purpose, a well-established lung colonization assay was used, where MDA-MB-231 cells are injected into the tail vein of athymic nude mice. After 7 weeks post-injection, the lungs were harvested and the metastases were visualized with India ink staining. In this method, the lung parenchyma stains black, while the tumor metastatic foci remain unstained, and appear white. For quantitation purposes. the number of metastases per lung lobe was scored.

MCF7 cancer cells = settings: L-lactate added to culture media; cited from earlier work

For CC(O)CC(=O)O (stereo not shown) [3-hydroxy-butyrate], which “increase in tumor growth (tumor volume) relative to PBS-alone control” value [1] is on record?
The value was roughly 2.5 fold.

What about the “vascular density (number of vessels per field), CD31” value [2] of the same molecule?
Its value is “not increased; also recorded: without any significant increases”.

And the “promotion of cancer cell migration versus vehicle alone” value (MDA-MB-231 cells [3])?
The value was roughly 2 fold.

What about the “formation of lung metastatic foci (metastases per lung lobe) relative to PBS-alone” value (MDA-MB-231 cells [4]) of the same molecule?
The value was “no effect”.

Which “increase in tumor growth (tumor volume) relative to PBS-alone control” value [1] does the source give for C[C@H](O)C(=O)O [L-lactate] here?
The value was “no significant effect; also recorded: did not increase”.

What about the “vascular density (number of vessels per field), CD31” value [2] of the same molecule?
Its value is “not increased”.

What about the “promotion of cancer cell migration versus vehicle alone” value (MDA-MB-231 cells [3]) of the same molecule?
Its value is roughly 2 fold.

And the “appearance of lung metastatic foci versus PBS-alone controls (representative images)” value (MDA-MB-231 cells [4])?
The value was “more numerous, and are also larger in size”.

And the “formation of lung metastatic foci (metastases per lung lobe) relative to PBS-alone” value (MDA-MB-231 cells [4])?
Its value is roughly 10 fold.

And the mitochondrial mass (MCF7 cancer cells)?
Its mitochondrial mass is “dramatically increase”.
